# Laboratory results taken from patent US10543212B2, “Substituted amines for treating cardiac diseases” (Cardurion Pharmaceuticals, LLC, priority 2017, dated 2020).
# pIC50: −log10 of the molar value. Where a name gives a salt, the structure may show the parent alone.
# Target: T1, Human full-length CaMKIIδ (Homo sapiens, UniProt Q13557)
# T1 construct: Human full-length CaMKIIδ (Cat #02-111) was obtained from Carna Biosciences; GST; purchased Carna Biosciences 02-111
# Test: Human CaMKII enzyme inhibition assay (radiometric kinase assay)
# Type: biochemical
# Conditions: 3 μM compound; 500 nM ATP; 0.5 nM CaMKIIδ; hydrochloride
# Procedure: In Vitro CaMKIIδ Inhibitory Activity was Evaluated by an Enzyme Assay.
# Human CaMKII Enzyme Inhibition Assay
# Kinase assay for CaMKIIs was performed using the radiometric assay. Human full-length CaMKIIδ (Cat #02-111) was obtained from Carna Biosciences (Kobe, Japan).
# Enzyme reactions were performed in 25 mM HEPES, pH 7.5, with 5 mM magnesium chloride, 1 mM calcium chloride, 10 μg/mL Calmodulin, 2 mM DTT, 0.01% Tween20 and 500 nM ATP (0.2 μCi/well of [γ-33P] ATP) containing 0.5 nM CaMKIIδ and 0.1 μM autophosphorylation peptide (KKALRRQETVDAL)(Toray Research Center).
# After incubating the enzyme, peptide, and compounds for 5 min, kinase reactions were initiated by adding ATP, followed by incubation for 60 min at room temperature in a total volume of 50 μL. The reactions were terminated by the addition of 10% trichloroacetic acid (final concentration). The [γ-33P]-phosphorylated proteins were filtered in a Harvest Plate (Merck Millipore) with a Cell Harvester (PerkinElmer) and then free [γ-33P] ATP was washed out with 3% phosphoric acid. The plates were dried, followed by the addition of 40 μl of MicroScintO (PerkinElmer). The radioactivity was counted by a TopCount scintillation counter (PerkinElmer). The signals of the reaction without enzyme were defined as 100% inhibitory activity and those of the reaction without inhibitors as 0% inhibitory activity. In vitro CaMKIIδ inhibitory activity was evaluated by % inhibitory activity of 3 μM compound concentration.
row,SMILES,CaMKIIδ inhibitory activity (%) at 3 μM
1,"COc1cc(N2CCC(N3CCOCC3)CC2)ccc1Nc1ncc(-c2ccc(C#N)c(O[C@@H](C)Cn3cncn3)c2)cn1 [Example 8, 4-(2-((2-methoxy-4-(4-(morpholin-4-yl)piperidin-1-yl)phenyl)amino)pyrimidin-5-yl)-2-(((2S)-1-(1H-1,2,4-triazol-1-yl)propan-2-yl)oxy)benzonitrile hydrochloride]",98%

# Same assay, conditions: 3 μM compound; 500 nM ATP; 0.5 nM CaMKIIδ; read-out: CaMKIIδ inhibitory activity (%) at 3 μM
row,SMILES,inhibition at 3 µM
1,"COc1cc(C(=O)NC2CCOCC2)ccc1Nc1ncc(-c2ccc(C#N)c(O[C@@H](C)Cn3cnnn3)c2)cn1 [Example 87, 4-((5-(4-cyano-3-(((2S)-1-(1H-tetrazol-1-yl)propan-2-yl)oxy)phenyl)pyrimidin-2-yl)amino)-3-methoxy-N-(tetrahydro-2H-pyran-4-yl)benzamide]",98%
2,"COc1cc(C(=O)N2CCOCC2)ccc1Nc1ncc(-c2ccc(C#N)c(O[C@@H](C)Cn3cncn3)c2)cn1 [Example 72, 4-(2-((2-methoxy-4-(morpholin-4-ylcar-bonyl)phenyl)amino)pyrimidin-5-yl)-2-(((2S)-1-(1H-1,2,4-triazol-1-yl)propan-2-yl)oxy)benzonitrile]",97%
3,"Cc1nn(C)cc1Nc1ncc(-c2ccc(C#N)c(O[C@@H](C)Cn3cncn3)c2)cn1 [Example 357, 4-(2-((1,3-dimethyl-1H-pyrazol-4-yl)amino)pyrimidin-5-yl)-2-(((2S)-1-(1H-1,2,4-triazol-1-yl)propan-2-yl)oxy)benzonitrile]",96%
4,"Cc1nn(C(C)C)cc1Nc1ncc(-c2ccc(C#N)c(O[C@@H](C)Cn3cncn3)c2)cn1 [Example 358, 4-(2-((1-isopropyl-3-methyl-1H-pyrazol-4-yl)amino)pyrimidin-5-yl)-2-(((2S)-1-(1H-1,2,4-triazol-1-yl)propan-2-yl)oxy)benzonitrile]",93%
5,"COc1cc(C(=O)N2CCN(C)CC2)ccc1Nc1ncc(-c2ccc(C#N)c(O[C@@H](C)Cn3cncn3)c2)cn1 [Example 73, 4-(2-((2-methoxy-4-((4-methylpiperazin-1-yl)car-bonyl)phenyl)amino)pyrimidin-5-yl)-2-(((2S)-1-(1H-1,2,4-triazol-1-yl)propan-2-yl)oxy)benzonitrile]",97%
6,"COc1cc(N2CCC(N3CCOCC3)CC2)ncc1Nc1ncc(-c2ccc(C#N)c(O[C@@H](C)Cn3cnnn3)c2)cn1 [Example 57, 4-(2-((4-methoxy-6-(4-(morpholin-4-yl)piperidin-1-yl)pyridin-3-yl)amino)pyrimidin-5-yl)-2-(((2S)-1-(1H-tetrazol-1-yl)propan-2-yl)oxy)benzonitrile]",99%
7,"C[C@@H](Cn1cnnn1)Oc1cc(-c2cnc(Nc3cnn(C)c3)nc2)ccc1C#N [Example 410, 4-(2-((1-methyl-1H-pyrazol-4-yl)amino)pyrimidin-5-yl)-2-(((2S)-1-(1H-tetrazol-1-yl)propan-2-yl)oxy)benzonitrile]",99%

# Target: T2, Full-length, GST-tagged, human CaMKIIδ (Homo sapiens, UniProt Q13557)
# T2 construct: Full-Length, Glutathione-S-Transferase(GST)-Tagged, Human CaMKIIδ was purchased from Carna Biosciences; purchased Carna Biosciences 02-111
# T2 sequence (Q13557 1-478 isoform Q13557-12): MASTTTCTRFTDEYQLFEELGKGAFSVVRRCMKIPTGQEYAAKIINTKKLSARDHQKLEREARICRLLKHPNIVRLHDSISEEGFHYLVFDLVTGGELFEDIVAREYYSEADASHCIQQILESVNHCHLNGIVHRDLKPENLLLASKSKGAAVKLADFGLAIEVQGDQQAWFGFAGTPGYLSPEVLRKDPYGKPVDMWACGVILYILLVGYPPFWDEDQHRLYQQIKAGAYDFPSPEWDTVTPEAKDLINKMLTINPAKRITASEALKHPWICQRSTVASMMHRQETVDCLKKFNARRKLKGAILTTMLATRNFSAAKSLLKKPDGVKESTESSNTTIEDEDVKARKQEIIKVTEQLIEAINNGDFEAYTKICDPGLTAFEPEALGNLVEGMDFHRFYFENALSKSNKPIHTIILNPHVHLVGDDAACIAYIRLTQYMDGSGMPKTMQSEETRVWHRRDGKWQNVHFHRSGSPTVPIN
# Test: CaMKIIδ binding assay (TR-FRET with BODIPY-labeled probe ligand)
# Conditions: CaMKIIδ binding assay, results of Table 2
# In short: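 TR-FRET probe-displacement binding: 0.5 nM GST-CaMKIIδ with 10 μg/mL calmodulin, 1 mM CaCl2, 0.21 nM Tb-anti-GST Ab and 300 nM BODIPY probe in HEPES pH 7.6 buffer. Eight-point 4-fold dilutions, 1 hr at room temperature. IC50 from logistic fit; 100% inhibition defined by 3 μM parent compound.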
row,SMILES,pIC50
1,"COc1cc2c(cc1Nc1ncc(-c3ccc(Cl)c(O[C@@H](C)Cn4cnnn4)c3)cn1)CCN(C1COC1)CC2 [Example 447, (S)-N-(5-(3-((1-(1H-tetrazol-1-yl)propan-2-yl)oxy)-4-chlorophenyl)pyrimidin-2-yl)-8-methoxy-3-(oxetan-3-yl)-2,3,4,5-tetrahydro-1H-benzo[d]azepin-7-amine]",> 8.00
2,"C[C@@H](Cn1cnnn1)Oc1cc(-c2cnc(Nc3cn(C4CCN(C5CCOCC5)CC4)nc3C3CC3)nc2)ccc1C#N [Example 546, (S)-2-((1-(1H-tetrazol-1-yl)propan-2-yl)oxy)-4-(2-((3-cyclopropyl-1-(1-(tetrahydro-2H-pyran-4-yl)piperidin-4-yl)-1H-pyrazol-4-yl)amino)pyrimidin-5-yl)benzonitrile]",> 8.00
3,"C[C@@H](Cn1cnnn1)Oc1cc(-c2cnc(Nc3cn(C4CCN(C5CCOC(C)(C)C5)CC4)nc3C(F)(F)F)nc2)ccc1Cl (stereo partly drawn) [Example 557, 5-(3-(((S)-1-(1H-tetrazol-1-yl)propan-2-yl)oxy)-4-chlorophenyl)-N-(1-(1-(2,2-dimethyltetrahydro-2H-pyran-4-yl)piperidin-4-yl)-3-(trifluoromethyl)-1H-pyrazol-4-yl)pyrimidin-2-amine]",> 8.00
4,"COc1ccc(C(=O)N2CCN(C)CC2)cc1Nc1ncc(-c2ccc(Cl)c(O[C@@H](C)Cn3cnnn3)c2)cn1 [Example 569, (S)-(3-((5-(3-((1-(1H-tetrazol-1-yl)propan-2-yl)oxy)-4-chlorophenyl)pyrimidin-2-yl)amino)-4-methoxyphenyl) (4-methylpiperazin-1-yl)methanone]",> 8.00
5,"C[C@@H](Cn1cnnn1)Oc1cc(-c2cnc(Nc3cn(C4CCN(CCO)CC4)nc3C(F)(F)F)nc2)ccc1Cl [Example 535, (S)-2-(4-(4-((5-(3-((1-(1H-tetrazol-1-yl)propan-2-yl)oxy)-4-chlorophenyl)pyrimidin-2-yl)amino)-3-(trifluoromethyl)-1H-pyrazol-1-yl)piperidin-1-yl)ethan-1-ol]",> 8.00
6,"COc1cc(C2CCCNC2)ccc1Nc1ncc(-c2ccc(Cl)c(O[C@@H](C)Cn3cnnn3)c2)cn1 (stereo partly drawn) [Example 473, 5-(3-(((S)-1-(1H-tetrazol-1-yl)propan-2-yl)oxy)-4-chlorophenyl)-N-(2-methoxy-4-(piperidin-3-yl)phenyl)pyrimidin-2-amine]",> 8.00

# Same assay, conditions: CaMKIIδ binding assay; activity class per Table 2
row,SMILES,pIC50
1,"C[C@@H](Cn1cnnn1)Oc1cc(-c2cnc(Nc3cn(C4CC5(C4)CN(C4COCOC4)C5)nc3OCC(F)(F)F)nc2)ccc1Cl [Example 965, (S)—N-(1-(2-(1,3-dioxan-5-yl)-2-azaspiro[3.3]heptan-6-yl)-3-(2,2,2-trifluoroethoxy)-1H-pyrazol-4-yl)-5-(3-((1-(1H-tetrazol-1-yl)propan-2-yl)oxy)-4-chlorophenyl)pyrimidin-2-amine]",> 8.00

# Same assay, conditions: Table 2; CaMKIIδ binding assay, activity given as class A/B/C
row,SMILES,pIC50
1,"C[C@@H](Cn1cnnn1)Oc1cc(-c2cnc(Nc3cn(C4CCN(C5CCC5)CC4)nc3OCCF)nc2)ccc1Cl [Example 826, (S)-5-(3-((1-(1H-tetrazol-1-yl)propan-2-yl)oxy)-4-chlorophenyl)-N-(1-(1-cyclobutylpiperidin-4-yl)-3-(2-fluoroethoxy)-1H-pyrazol-4-yl)pyrimidin-2-amine]",> 8.00
2,"C[C@@H](Cn1cnnn1)Oc1cc(-c2cnc(Nc3cn(CC(O)(C(F)(F)F)C(F)(F)F)nc3C(F)(F)F)nc2)ccc1Cl [Example 744, (S)-2-((4-((5-(3-((1-(1H-tetrazol-1-yl)propan-2-yl)oxy)-4-chlorophenyl)pyrimidin-2-yl)amino)-3-(trifluoromethyl)-1H-pyrazol-1-yl)methyl)-1,1,1,3,3,3-hexafluoropropan-2-ol]",≤ 7.00
3,"C[C@@H](Cn1cnnn1)Oc1cc(-c2cnc(Nc3cn(CC(F)(F)F)nc3OCC(F)(F)F)nc2)ccc1Cl [Example 756, (S)-5-(3-((1-(1H-tetrazol-1-yl)propan-2-yl)oxy)-4-chlorophenyl)-N-(3-(2,2,2-trifluoroethoxy)-1-(2,2,2-trifluoroethyl)-1H-pyrazol-4-yl)pyrimidin-2-amine]",7.00 to 8.00

# Same assay, conditions: Table 2; activity class for CaMKIIδ
row,SMILES,pIC50
1,"COc1nc(N2CCN(CC(F)(F)F)CC2)ccc1Nc1ncc(-c2ccc(Cl)c(O[C@@H](C)Cn3cnnn3)c2)cn1 [Example 637, (S)-5-(3-((1-(1H-tetrazol-1-yl)propan-2-yl)oxy)-4-chlorophenyl)-N-(2-methoxy-6-(4-(2,2,2-trifluoroethyl)piperazin-1-yl)pyridin-3-yl)pyrimidin-2-amine]",≤ 7.00
2,"COc1cc(N2CCOC(CO)C2)ccc1Nc1ncc(-c2ccc(Cl)c(O[C@@H](C)Cn3cnnn3)c2)cn1 (stereo partly drawn) [Example 594, (4-(4-((5-(3-(((S)-1-(1H-tetrazol-1-yl)propan-2-yl)oxy)-4-chlorophenyl)pyrimidin-2-yl)amino)-3-methoxyphenyl)morpholin-2-yl)methanol]",7.00 to 8.00
3,"CC(C#N)n1cc(Nc2ncc(-c3ccc(Cl)c(O[C@@H](C)Cn4cnnn4)c3)cn2)c(C(F)(F)F)n1 (stereo partly drawn) [Example 716, 2-(4-((5-(3-(((S)-1-(1H-tetrazol-1-yl)propan-2-yl)oxy)-4-chlorophenyl)pyrimidin-2-yl)amino)-3-(trifluoromethyl)-1H-pyrazol-1-yl)propanenitrile]",7.00 to 8.00
4,"C[C@@H](Cn1cnnn1)Oc1cc(-c2cnc(Nc3cn(C4CCSCC4)nc3C(F)(F)F)nc2)ccc1Cl [Example 663, (S)-5-(3-((1-(1H-tetrazol-1-yl)propan-2-yl)oxy)-4-chlorophenyl)-N-(1-(tetrahydro-2H-thiopyran-4-yl)-3-(trifluoromethyl)-1H-pyrazol-4-yl)pyrimidin-2-amine]",7.00 to 8.00
